Here are results for two compounds from patent publication US11154572B2, “Methods of treatment with natural killer cells matched for killer immunoglobulin receptor type” (Board of Regents, The University of Texas System, priority 2015, dated 2021).

The test system of one assay is iC9/CAR19/IL15+ NK cells. The experiment in a line: Inducible caspase-9 suicide gene test, annexin-V-7AAD staining. The assay is classed as cell-based, human. To be noted: after 4 hours. From the text: (C) CAR-NK cells home to sites of disease, such as the spleen, bone marrow, and liver, in a Raji engrafted mouse at Day 16 post-infusion. (D) CAR-NK cells persist in Raji engrafted mice at Day 70 post infusion. (E) CAR-transduced CB-NK cells show an anti-tumor effect in vivo in Raji-FFLuc mice from Day 0 to Day 14. (F) CAR-transduced CB-NK cells show an anti-tumor effect in vivo in Raji-FFLuc mice from Day 21 to Day 35. […] (H) Survival curve with different NK cell treatments. (I) CAR.19.IL15-iCasp9 transduced CB-NK cells are eliminated after activation of the suicide gene by exposure to the small molecule AP1903 after 4 hours.
Because of concerns over autonomous, uncontrolled NK-cell growth due to autocrine production of IL-15, a suicide gene based on the inducible caspase-9 (IC9) gene was incorporated into the construct. To test the inducible caspase-9 suicide gene that was incorporated into the retroviral vector, 10 nM of CID AP20187 was added to cultures of iC9/CAR19/IL15+ NK cells. The AP20187 induced apoptosis/necrosis of transgenic cells within 4 hours as assessed by annexin-V-7AAD staining (FIG. 2I).

The test system of assay [1] is primary CD19+ tumor cells. The experiment in a line: Cytotoxicity (percent lysis) against tumor cells. The assay is classed as cell-based, human. To be noted: combination with CAR-transduced NK cells. An excerpt:
FIGS. 1A-1I: (A) CB NK cells were stably transduced with SFG.iCASP9.2A.CAR.CD19-28z.2A.[…]. Cell analysis for CD56 and CAR are shown from Day 10 to Day 44. (B) Histograms show NK receptor expression on ex vivo-expanded cord blood versus peripheral blood NK cells. NK receptors include KIR2DL2/DL3, KIR2DL1, NGK2A, NKP30, NKP44, and NKP46. (C) aAPC-expanded NK cells maintain an Eomes^hi and T-bet^hi phenotype. […] (G) NK cells co-expressing CAR.19-IL-15-iCasp9 form functional synapses with CD19^+ CLL cells. Cells are stained for Perforin, Phalloidin, and CAR and imaged by confocal microscopy. (H) CAR.19-IL-15-iCasp9 transduced CB-NK cells are more efficient at killing primary CD19^+ tumor cells. Percent lysis of tumor cells is shown at varying effector:target ratios of K562, Raji, and CLL cells. (I) The activity of cord blood-derived NK cells against primary CLL cells is enhanced with lenalidomide (Revlimid).
The immunological synapse in immune cells is a discrete structural entity that forms after the ligation of a specific activation receptor and enables the cell to progress through a series of biological steps that allow it to destroy cancer cells through the elaboration of the contents of NK cells lytic granules. To determine if the CAR-transduced NK cells formed immunological synapses with CD19^+ targets, the cells were stained with antiperforin, Phalloidin-F-actin and anti-CD19-CAR.

As to `CC[C@H](C(=O)N1CCCC[C@H]1C(=O)O[C@H](CCc1ccc(OC)c(OC)c1)c1cccc(OCC(=O)NCCNC(=O)COc2cccc([C@@H](CCc3ccc(OC)c(OC)c3)OC(=O)[C@@H]3CCCCN3C(=O)[C@@H](CC)c3cc(OC)c(OC)c(OC)c3)c2)c1)c1cc(OC)c(OC)c(OC)c1` [AP1903], the “elimination of CAR.19.IL15-iCasp9 transduced CB-NK cells after activation of the suicide gene” value in the assay on iC9/CAR19/IL15+ NK cells was “eliminated”.

In the case of `Nc1cccc2c1CN(C1CCC(=O)NC1=O)C2=O` (centres unmarked) [lenalidomide], in assay [1], the “activity of CAR-transduced NK cells against patient-derived CLL cells on addition of lenalidomide” value is “enhanced synergistically”.
